# Measurements from PMC10077203, “Structure modification, antialgal, antiplasmodial, and toxic evaluations of a series of new marine-derived 14-membered resorcylic acid lactone derivatives” (Marine Life Science & Technology, 2021).
# Where “and” joins values, the source holds several entries; their conditions need not be identical. Identical values can stand only once. Like-named read-outs stand apart in the source and are kept apart here.
# Legend:
# [1] = system: chloroquine sensitive HB3 strain of P. falciparum; assay: In vitro antiplasmodial assay (Pico-Green growth inhibition); assay type: cell-based, Plasmodium falciparum; conditions: for IC50: Plasmodium falciparum, Erythrocyte, HB3 strain in human erythrocytes, read-out: P. falciparum IC50; for P. falciparum SI, Selectivity Index (CC50/IC50): CC50 HUVEC / IC50 P. falciparum; for antiplasmodial activity against P. falciparum (in words): structure-activity discussion
# Description: In vitro antiplasmodial activity was performed by culturing human erythrocytes and infecting them with P. falciparum, as reported by Trager and Jensen ([1976]). Briefly, the chloroquine sensitive HB3 strain of P. falciparum-infected O + erythrocytes was cultured in RPMI 1640 medium supplemented with 10% human serum (from O + blood) at a hematocrit of 2% erythrocytes at 37 °C with a gas mixture containing 90% N2, 5% CO2, and 5% O2. Parasites were synchronized with 5% D-sorbitol (Lambros and Vanderberg [1979]). P. falciparum growth inhibition bioassays were performed with the procedure as described by Corbett et al. ([2004]), which used Pico-Green, a double stranded-DNA fluorescent dye to test the effect of compounds.
# [2] = system: N. laevissima; assay: Diatom growth inhibition assay (antialgal activity); assay type: cell-based, Navicula laevissima; conditions: 48 h, chlorophyll a of attached microalgae, read-out: EC50 N. laevissima
# Description: (§1) The antialgal activity against the microalgae P. tricornutum Bohlin, C. vulgaris, C. socialis, N. laevissima, and N. exigua was evaluated by the method of Ortlepp et al. ([2008]). Briefly, the microalgae were grown in sterilized BG11 medium under light intensity of 2500 lx and 12 h: 12 h light: dark cycle at temperature of 20 ℃. The microalgae were grown to reach the logarithmic phase (approximately 5 × 10^5 cells/ml), which were used for microalgae growth inhibition assay. The compounds 1–71 were first dissolved in a small amount of DMSO and then diluted with 0.22 μm of filtered seawater (FSW) to achieve a range of concentrations from 0.625 to 50 μg/ml. Ten microliters of the compound solution was added to multiwell Petri dishes containing a 1-mL suspension of the microalgae (approximately 12 × 10^4 cells/ml). FSW with DMSO was used as a negative control, and solutions of SeaNine 211 in seawater were used as positive controls. After the plates were incubated for 48 h (16 ± 1 ℃) under continuous light, the FSW with non-attached microalgae was removed. The amount of chlorophyll a in attached microalgae was determined with a spectrophotometer (Beckman, model DU650, USA). Then the EC50 (inhibits 50% of settlement of cyprids in comparison with the control) was calculated using the Probit software program.
# [3] = system: C. socialis; assay: as above; assay type: cell-based, Chaetoceros socialis; conditions: 48 h, chlorophyll a of attached microalgae, read-out: EC50 C. socialis
# Description: as §1
# [4] = system: N. exigua; assay: as above; assay type: cell-based, Navicula exigua
# Description: as §1
# [5] = system: P. tricornutum Bohlin; assay: as above; assay type: cell-based, Phaeodactylum tricornutum Bohlin; conditions: 48 h, chlorophyll a of attached microalgae, read-out: EC50 P. tricornutum
# Description: as §1
# [6] = system: P. tricornutum Bohlin, C. vulgaris, C. socialis, N. laevissima, and N. exigua; assay: Diatom growth inhibition assay, whole panel; assay type: cell-based; conditions: Chlorella vulgaris; selective and moderate activities; read-out: EC50 antialgal, range over compounds and algae
# Description: as §1
# [7] = system: C. vulgaris; assay: Diatom growth inhibition assay (antialgal activity); assay type: cell-based, Chlorella vulgaris; conditions: 48 h, chlorophyll a of attached microalgae, read-out: EC50 C. vulgaris
# Description: as §1
# [8] = In vitro cytotoxicity (CC50); assay type: cell-based; conditions: human, HUVEC cells
# Description: Toxicity is a major concern of drug discovery and development, and the selectivity index (SI) is used as the evaluation parameter of drug potential of the test samples by comparing the toxicity on a human cell line (CC50) and the selective inhibitory effect on P. falciparum (IC50) calculated here as CC50/IC50. We decided to evaluate in vitro cytotoxicity of the active derivatives 38, 39, 50, 52, 65, 67, 70, and 71 by determining their 50% cytotoxic concentrations. The results are presented in Table 3, presenting only those CC50 values > 100 μmol/L, reaching selectivity indexes > 10. The cytotoxic concentration at 150 μmol/L was not be determined because of a lack of solubility of the tested molecule in the culture medium. Moreover, the toxicity of these derivatives was also evaluated against two other cell lines: hepatocellular liver carcinoma cell line (Hep G2) and cervical carcinoma (HeLa), finding CC50 values > 100 μmol/L.
# [9] = 48 h, chlorophyll a of attached microalgae, read-out: EC50 N. exigua
smiles,measurement,setting,value
COCC(=O)Oc1cc(OC)c(Cl)c2c1C(=O)OC(C)CC=CC1OC(C)(C)OC1C(OC(=O)COC)CC=C2 (stereo not drawn) [Compound 35],IC50,[1],11.6 µM
COc1cc2c(c(OCc3ccc(C(F)(F)F)cc3)c1)C(=O)OC(C)CC=CC1OC(C)(C)OC1C(O)CC=C2 (stereo not drawn) [Compound 45],EC50,[2]; Sellaphora laevissima,27.4 µM
same,EC50,[3]; Chaetoceros socialis,> 10 µM
same,EC50,[4]; [9],18.3 µM
same,EC50,[5]; Phaeodactylum tricornutum,> 10 µM
same,EC50,[6],11 to 32.5 µM
same,EC50,[7]; Chlorella vulgaris,13 µM
COc1cc(COc2cc(OC)c(Cl)c3c2C(=O)OC(C)CC=CC2OC(C)(C)OC2C(O)CC=C3)cc(OC)c1 (stereo not drawn) [Compound 50],"P. falciparum SI, Selectivity Index (CC50/IC50)",[1],> 12
same,IC50,[1],7.82 µM
same,antiplasmodial activity against P. falciparum (in words),[1],active
same,CC50,[8],> 100 µM
COC(=O)c1ccc(COc2cc(OC)c(Cl)c3c2C(=O)OC(C)CC=CC2OC(C)(C)OC2C(O)CC=C3)cc1 (stereo not drawn) [Compound 52],"P. falciparum SI, Selectivity Index (CC50/IC50)",[1],> 10
same,IC50,[1],9.72 µM
same,CC50,[8],> 100 µM
[2H]C([2H])([2H])C1(C([2H])([2H])[2H])OC2C=CCC(C)OC(=O)c3c(cc(OC)cc3OCc3ccccc3Br)C=CCC(O)C2O1 (stereo not drawn) [Compound 58],EC50,[2]; Sellaphora laevissima,> 10 µM
same,EC50,[3]; Chaetoceros socialis,> 10 µM
same,EC50,[4]; [9],20.1 µM
same,EC50,[5]; Phaeodactylum tricornutum,28.2 µM
same,EC50,[6],11 to 32.5 µM
same,EC50,[7]; Chlorella vulgaris,15.9 µM
[2H]C([2H])([2H])C1(C([2H])([2H])[2H])OC2C=CCC(C)OC(=O)c3c(cc(OC)cc3OCc3cccc(F)c3)C=CCC(O)C2O1 (stereo not drawn) [Compound 60],antiplasmodial activity against P. falciparum (in words),[1],active
[2H]C([2H])([2H])C1(C([2H])([2H])[2H])OC2C=CCC(C)OC(=O)c3c(cc(OC)cc3OCc3cccc(C)c3)C=CCC(O)C2O1 (stereo not drawn) [Compound 62],EC50,[2]; Sellaphora laevissima,> 10 µM
same,EC50,[3]; Chaetoceros socialis,25.8 µM
same,EC50,[4]; [9],14.2 µM
same,EC50,[5]; Phaeodactylum tricornutum,> 10 µM
same,EC50,[6],11 to 32.5 µM
same,EC50,[7]; Chlorella vulgaris,16.3 µM
[2H]C([2H])([2H])C1(C([2H])([2H])[2H])OC2C=CCC(C)OC(=O)c3c(cc(OC)cc3OCc3ccc(-c4ccccc4C#N)cc3)C=CCC(O)C2O1 (stereo not drawn) [Compound 65],"P. falciparum SI, Selectivity Index (CC50/IC50)",[1],> 12
same,IC50,[1],7.82 µM
same,CC50,[8],> 100 µM
[2H]C([2H])([2H])C1(C([2H])([2H])[2H])OC2C=CCC(C)OC(=O)c3c(cc(OC)cc3OCc3ccc(-c4ccccc4C(=O)OC)cc3)C=CCC(O)C2O1 (stereo not drawn) [Compound 67],"P. falciparum SI, Selectivity Index (CC50/IC50)",[1],> 13
same,IC50,[1],7.25 µM
same,CC50,[8],> 100 µM
CCC(=O)Oc1cc(OC)cc2c1C(=O)OC(C)CC=CC(OC(=O)CC)C(OC(=O)CC)C(OC(=O)CC)CC=C2 (stereo not drawn) [Compound 69],IC50,[1],9.18 µM
CCC(=O)Oc1cc(OC)c(Cl)c2c1C(=O)OC(C)CC=CC(OC(=O)CC)C(OC(=O)CC)C(OC(=O)CC)CC=C2 (stereo not drawn) [Compound 70],"P. falciparum SI, Selectivity Index (CC50/IC50)",[1],> 14
same,IC50,[1],6.91 µM
same,CC50,[8],> 100 µM
COc1cc(OC(=O)C(C)(C)C)c2c(c1Cl)C=CCC(OC(=O)C(C)(C)C)C(O)C(OC(=O)C(C)(C)C)C=CCC(C)OC2=O (stereo not drawn) [Compound 71],"P. falciparum SI, Selectivity Index (CC50/IC50)",[1],> 28
same,IC50,[1],3.54 µM
same,CC50,[8],> 100 µM
"CCCCCCCCn1sc(Cl)c(Cl)c1=O [SeaNine 211, reference compound]",EC50,[2],2.9 µM
same,EC50,[3],1.87 µM
same,EC50,"[4]; 48 h, chlorophyll a of attached microalgae; read-out: EC50 N. exigua",9.74 µM and 9.47 µM
same,EC50,[5],0.74 µM
same,EC50,[7],6.52 µM
